Laboratory results published in US20260284065A1, “PHARMACEUTICAL COMPOSITION FOR PREVENTION OR TREATMENT OF CANCER FOR OVERCOMING RESISTANCE TO IMMUNE CHECKPOINT INHIBITORS” (AJOU UNIVERSITY INDUSTRY-ACADEMIC COOPERATION FOUNDATION, priority 2023, published 2026).

Tested on: mouse gastric cancer cell line YTN16
Test: YTN16 syngeneic mouse model: subcutaneous tumor size and tumor weight
Assay type: in vivo
Method: The experiment was conducted by dividing the mice into a control group (Control), a group administered with Comparative Example 1 (Anti-PD-1), a group administered with Comparative Example 2 (CCB-3233), and a group administered with Example 1 (Anti-PD-1+CCB-3233), and eight mouse models were used for each group.
Comparative Example 1 (Anti-PD-1) was diluted in 1×PBS at a concentration of 10 mg/kg and administered intraperitoneally to the mice, Comparative Example 2 (CCB-3233) was orally administered to the mice at a concentration of 50 mg/kg by dissolving 5% DMSO+5% CMC-NA in 1×PBS, and Example 1 (Anti-PD-1+CCB-3233) was diluted and prepared in different solvents as in Comparative Examples 1 and 2, and then administered sequentially.

COc1cc2c(Oc3ccc(Nc4nn(C)cc4C(=O)NC4CCCCC4)cc3F)ccnc2cc1OCCCN1CCOCC1 [Comparative Example 2]
therapeutic effect of the immune checkpoint inhibitor (CCB-3233 administered together with the immune checkpoint inhibitor to YTN 16 syngeneic mice resistant to the immune checkpoint inhibitor): enhanced
tumor weight (FIG. 2) (YTN16 syngeneic mice, anti-PD-1 10 mg/kg intraperitoneally, CCB-3233 50 mg/kg orally, compared between groups): no significant difference in tumor weight from the control group
